From PubChem BioAssay (NCI)
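Cultured in 96-well plates, cells were exposed to test compound for 48 hours across five concentrations. TGI: total growth inhibition.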

Columns and labels:
Assay in all cases: NCI tumour cell line growth inhibition, 48 h
786-0 renal = test system: 786-0 renal
A549 NSCLC = test system: A549 NSCLC
ACHN renal = test system: ACHN renal
BT-549 breast = test system: BT-549 breast
CAKI-1 renal = test system: CAKI-1 renal
CCRF-CEM leukemia = test system: CCRF-CEM leukemia
COLO 205 colon = test system: COLO 205 colon
DU-145 prostate = test system: DU-145 prostate
EKVX NSCLC = test system: EKVX NSCLC
HCC-2998 colon = test system: HCC-2998 colon
HCT-116 colon = test system: HCT-116 colon
HCT-15 colon = test system: HCT-15 colon
HL-60(TB) leukemia = test system: HL-60(TB) leukemia
HOP-92 NSCLC = test system: HOP-92 NSCLC
HS 578T breast = test system: HS 578T breast
HT29 colon = test system: HT29 colon
IGROV1 ovarian = test system: IGROV1 ovarian
K-562 leukemia = test system: K-562 leukemia
KM12 colon = test system: KM12 colon
LOX IMVI melanoma = test system: LOX IMVI melanoma
M14 melanoma = test system: M14 melanoma
MALME-3M melanoma = test system: MALME-3M melanoma
MCF7 breast = test system: MCF7 breast
MDA-MB-231 breast = test system: MDA-MB-231 breast
MDA-MB-435 = test system: MDA-MB-435
MDA-N = test system: MDA-N
MOLT-4 leukemia = test system: MOLT-4 leukemia
NCI-H226 lung = test system: NCI-H226 lung
NCI-H23 lung = test system: NCI-H23 lung
NCI-H460 lung = test system: NCI-H460 lung
NCI-H522 lung = test system: NCI-H522 lung
NCI/ADR-RES ovarian = test system: NCI/ADR-RES ovarian
OVCAR-3 ovarian = test system: OVCAR-3 ovarian
OVCAR-4 ovarian = test system: OVCAR-4 ovarian
OVCAR-5 ovarian = test system: OVCAR-5 ovarian
OVCAR-8 ovarian = test system: OVCAR-8 ovarian
PC-3 prostate = test system: PC-3 prostate
RPMI-8226 leukemia = test system: RPMI-8226 leukemia
RXF 393 renal = test system: RXF 393 renal
SF-268 CNS = test system: SF-268 CNS
SF-295 CNS = test system: SF-295 CNS
SF-539 CNS = test system: SF-539 CNS
SK-MEL-2 melanoma = test system: SK-MEL-2 melanoma
SK-MEL-28 melanoma = test system: SK-MEL-28 melanoma
SK-MEL-5 melanoma = test system: SK-MEL-5 melanoma
SK-OV-3 ovarian = test system: SK-OV-3 ovarian
SN12C renal = test system: SN12C renal
SNB-19 CNS = test system: SNB-19 CNS
SNB-75 CNS = test system: SNB-75 CNS
SW-620 colon = test system: SW-620 colon
T-47D breast = test system: T-47D breast
TK-10 renal = test system: TK-10 renal
U251 CNS = test system: U251 CNS
UACC-257 melanoma = test system: UACC-257 melanoma
UACC-62 melanoma = test system: UACC-62 melanoma
UO-31 renal = test system: UO-31 renal
A498 renal = test system: A498 renal
HOP-62 NSCLC = test system: HOP-62 NSCLC

Which results are given for `CCCCCCNC(=O)c1cc(NCc2cc(OC)ccc2OC)ccc1O`?
TGI (786-0 renal): 75 µM; TGI (A549 NSCLC): > 100 µM; TGI (ACHN renal): > 100 µM; TGI (BT-549 breast): 33.4 µM; TGI (CAKI-1 renal): 98 µM; TGI (CCRF-CEM leukemia): 68.6 µM; TGI (COLO 205 colon): 33.9 µM; TGI (DU-145 prostate): > 100 µM; TGI (EKVX NSCLC): 63.1 µM; TGI (HCC-2998 colon): 68.4 µM; TGI (HCT-116 colon): 49.6 µM; TGI (HCT-15 colon): 57.3 µM; TGI (HL-60(TB) leukemia): 46 µM; TGI (HOP-92 NSCLC): 31.7 µM; TGI (HS 578T breast): 97.9 µM; TGI (HT29 colon): 85.2 µM; TGI (IGROV1 ovarian): 55 µM; TGI (K-562 leukemia): 47.3 µM; TGI (KM12 colon): 80 µM; TGI (LOX IMVI melanoma): 32.9 µM; TGI (M14 melanoma): 38.4 µM; TGI (MALME-3M melanoma): 55.9 µM; TGI (MCF7 breast): 53.5 µM; TGI (MDA-MB-231 breast): 46.7 µM; TGI (MDA-MB-435): 44.8 µM; TGI (MDA-N): 41.8 µM; TGI (MOLT-4 leukemia): 66.5 µM; TGI (NCI-H226 lung): 64.9 µM; TGI (NCI-H23 lung): 80.6 µM; TGI (NCI-H460 lung): 84.4 µM; TGI (NCI-H522 lung): 33.1 µM; TGI (NCI/ADR-RES ovarian): 48.1 µM; TGI (OVCAR-3 ovarian): 7.05 µM; TGI (OVCAR-4 ovarian): 70.5 µM; TGI (OVCAR-5 ovarian): > 100 µM; TGI (OVCAR-8 ovarian): 86.7 µM; TGI (PC-3 prostate): 45.7 µM; TGI (RPMI-8226 leukemia): 35.6 µM; TGI (RXF 393 renal): 56.5 µM; TGI (SF-268 CNS): 32.3 µM; TGI (SF-295 CNS): 30.1 µM; TGI (SF-539 CNS): 36.3 µM; TGI (SK-MEL-2 melanoma): 45.8 µM; TGI (SK-MEL-28 melanoma): > 100 µM; TGI (SK-MEL-5 melanoma): 28.4 µM; TGI (SK-OV-3 ovarian): 36.9 µM; TGI (SN12C renal): 53.7 µM; TGI (SNB-19 CNS): > 100 µM; TGI (SNB-75 CNS): 76.3 µM; TGI (SW-620 colon): > 100 µM; TGI (T-47D breast): 46.1 µM; TGI (TK-10 renal): > 100 µM; TGI (U251 CNS): 41.1 µM; TGI (UACC-257 melanoma): 45.7 µM; TGI (UACC-62 melanoma): 33 µM; TGI (UO-31 renal): 53.1 µM

For `CCCCCCCCCCCCCCCCOP(=O)(O)OP(=O)(O)OCC1OC(n2ccc(N)nc2=O)CC1O` (stereo not drawn), which TGI (786-0 renal) is on record?
Its TGI is over 100 µM.

And the TGI (A498 renal)?
The TGI was over 100 µM.

What about the TGI (A549 NSCLC) of the same molecule?
Its TGI is over 100 µM.

What about the TGI (ACHN renal) of the same molecule?
Its TGI is over 100 µM.

What about the TGI (BT-549 breast) of the same molecule?
Its TGI is over 100 µM.

And the TGI (CAKI-1 renal)?
Its TGI is over 100 µM.

And the TGI (CCRF-CEM leukemia)?
Its TGI is over 100 µM.

And the TGI (COLO 205 colon)?
The TGI was over 100 µM.

And the TGI (EKVX NSCLC)?
Its TGI is over 100 µM.

And the TGI (HCC-2998 colon)?
Its TGI is over 100 µM.

And the TGI (HCT-116 colon)?
The TGI was over 100 µM.

And the TGI (HCT-15 colon)?
Its TGI is over 100 µM.

And the TGI (HL-60(TB) leukemia)?
Its TGI is over 100 µM.

And the TGI (HOP-62 NSCLC)?
Its TGI is over 100 µM.

What about the TGI (HOP-92 NSCLC) of the same molecule?
The TGI was over 100 µM.

What about the TGI (HS 578T breast) of the same molecule?
The TGI was over 100 µM.

And the TGI (HT29 colon)?
The TGI was over 100 µM.

What about the TGI (IGROV1 ovarian) of the same molecule?
Its TGI is over 100 µM.

And the TGI (K-562 leukemia)?
The TGI was over 100 µM.

And the TGI (KM12 colon)?
Its TGI is over 100 µM.

What about the TGI (LOX IMVI melanoma) of the same molecule?
Its TGI is over 100 µM.

What about the TGI (M14 melanoma) of the same molecule?
The TGI was over 100 µM.

What about the TGI (MALME-3M melanoma) of the same molecule?
Its TGI is over 100 µM.

And the TGI (MCF7 breast)?
The TGI was over 100 µM.

And the TGI (MDA-MB-231 breast)?
The TGI was over 100 µM.

And the TGI (MDA-MB-435)?
Its TGI is over 100 µM.

And the TGI (MDA-N)?
Its TGI is over 100 µM.

What about the TGI (MOLT-4 leukemia) of the same molecule?
The TGI was over 100 µM.

What about the TGI (NCI-H226 lung) of the same molecule?
The TGI was over 100 µM.

What about the TGI (NCI-H23 lung) of the same molecule?
Its TGI is over 100 µM.

And the TGI (NCI-H460 lung)?
Its TGI is over 100 µM.

What about the TGI (NCI-H522 lung) of the same molecule?
Its TGI is over 100 µM.

What about the TGI (NCI/ADR-RES ovarian) of the same molecule?
Its TGI is over 100 µM.

What about the TGI (OVCAR-3 ovarian) of the same molecule?
The TGI was over 100 µM.

And the TGI (OVCAR-4 ovarian)?
The TGI was over 100 µM.

What about the TGI (OVCAR-5 ovarian) of the same molecule?
Its TGI is over 100 µM.

And the TGI (OVCAR-8 ovarian)?
The TGI was over 100 µM.

And the TGI (PC-3 prostate)?
Its TGI is over 100 µM.

What about the TGI (RPMI-8226 leukemia) of the same molecule?
Its TGI is over 100 µM.

And the TGI (RXF 393 renal)?
The TGI was over 100 µM.

And the TGI (SF-268 CNS)?
Its TGI is over 100 µM.

And the TGI (SF-295 CNS)?
Its TGI is over 100 µM.

And the TGI (SF-539 CNS)?
The TGI was over 100 µM.

What about the TGI (SK-MEL-2 melanoma) of the same molecule?
Its TGI is over 100 µM.

What about the TGI (SK-MEL-28 melanoma) of the same molecule?
The TGI was over 100 µM.

And the TGI (SK-MEL-5 melanoma)?
Its TGI is over 100 µM.

And the TGI (SK-OV-3 ovarian)?
The TGI was over 100 µM.

And the TGI (SN12C renal)?
Its TGI is over 100 µM.

What about the TGI (SNB-19 CNS) of the same molecule?
Its TGI is over 100 µM.

And the TGI (SNB-75 CNS)?
The TGI was over 100 µM.

And the TGI (SW-620 colon)?
Its TGI is over 100 µM.

And the TGI (T-47D breast)?
Its TGI is over 100 µM.

What about the TGI (TK-10 renal) of the same molecule?
The TGI was over 100 µM.

And the TGI (U251 CNS)?
The TGI was over 100 µM.

What about the TGI (UACC-257 melanoma) of the same molecule?
The TGI was over 100 µM.

And the TGI (UACC-62 melanoma)?
Its TGI is over 100 µM.

What about the TGI (UO-31 renal) of the same molecule?
Its TGI is over 100 µM.
